In experiment [1] the test system is LPS in E. coli culture supernatant (E. coli NIHJ JC-2 strain). In words: Inhibitory effect on LPS in E. coli culture supernatant. The settings on record: relative ratio to the inhibitory ratio of the compound of Example 1 as 1.0, compound 100 μM, 24 hr. The experiment is classed as cell-based. How it is done: One platinum loop of E. coli NIHJ JC-2 strain was inoculated into a test tube containing heart infusion broth (HIB, 5 mL) and cultured for about 24 hr. The bacterial culture broth was washed three times by centrifugation (3000 rpm, 15 min, 20° C., TOMY Seiko, RL-131) using 10 mL of fresh HIB medium for one cycle of washing. The washed bacteria were prepared to an about 10^7 colony forming unit (CFU)/mL with a fresh HIB medium, and 0.2 mL of the prepared bacterial suspension was inoculated into an Erlenmeyer flask containing a fresh HIB medium (18.8 mL) (i.e., to final bacterial concentration of about 10^5 CFU/mL). A solution (1 mL) of each compound prepared to a concentration of 2 mM (final concentration of compound 100 μM) was added to the culture broth containing the bacteria. Using a shaker (RGR-1 type, manufactured by IWASHIYA, Ltd.), shake culture was conducted at 37° C., and 2 mL of culture broth after 24 hr was sampled. The sampled culture broth was filtered (DISMIC, 0.45 μm, Advantech Toyo) and diluted 10^5-fold with sterile distilled water. The resulting suspension (200 μL) was added to a limulus reagent (LAL ES, Wako Pure Chemical Industries) and LPS concentration was measured using Toxinometer MT-285 (Wako Pure Chemical Industries) preheated to 37° C.
The LPS inhibitory ratio of the compound was calculated as a ratio of the LPS concentration of the compound addition group relative to the LPS concentration of the compound non-addition group. […] The inhibitory ratio of each compound is shown in the following in Table 1 as a relative ratio to the inhibitory ratio of the compound of Example 1 as 1.0.

The test system of experiment [2] is LPS in rat peritonitis (CLP; cecal ligation and puncture) model. Briefly: Inhibitory effect on LPS that increases in rat peritonitis (CLP) model. The experiment is classed as in vivo. As to conditions: iv, continuous tail vein infusion 2.5 mg/kg/hr. As for the experimental part: Rat peritonitis (CLP; cecal ligation and puncture) model was prepared according to the method of Wichterman et al. (J. Surg. Res. 29, 189-201 <1980>). That is, a rat fasted overnight was anesthetized with ether, and a midline laparotomy was performed and the cecum was exposed. The cecum was ligated with a 3-0 silk thread at its base and perforated two times with an 18 G injection needle. The cecum was gently squeezed to extrude feces, which were spread around the abdomen, and the sectioned part was sutured. The animal was fixed in a Borrmann cage, and physiological saline or drug solution ([…]) was continuously given from the tail vein at an administration rate of 2.5 mg/kg/hr with an infusion pump (22 M, Harvard, 5 mL/kg/hr as a dose).
After 6 hr of the CLP treatment, the animal was sacrificed with carbonic acid gas. The abdominal cavity was washed by injecting phosphate buffered saline (PBS; 37° C., 10 mL) and the abdominal cavity washing containing ascites (PLF; peritoneal lavage fluid) was recovered. The recovery weight of the obtained PLF was measured, and PLF was centrifuged (1500 rpm for 5 min, 4° C.) to recover supernatant. The blood taken from the heart was centrifuged (3000 rpm for 10 min, 4° C.) using a serum separation tube, and the serum was recovered. The concentration of LPS in the abdominal cavity and serum was measured using Toxinometer MT-285 (Waco Pure Chemical Industries) preheated to 37° C., after diluting the supernatant and serum of the recovered PLF 10^5-fold and 10^2-fold, respectively, with sterile distilled water, and adding 200 μL thereof to a limulus reagent (LAL ES, Waco Pure Chemical Industries). The amount of LPS per abdominal cavity was calculated from amount of recovered abdominal cavity washing (PLF)×LPS concentration of PLF.
The LPS inhibitory ratio of the compound was calculated as the ratio of LPS concentration of the compound administration group to LPS concentration of the physiological saline administration group.

[3] abbreviates: peritoneal lavage fluid 6 hr after CLP, read-out: LPS inhibitory ratio (%) in abdominal cavity.
Setting [4] is: serum 6 hr after CLP, read-out: LPS inhibitory ratio (%) in blood.

Read-outs that look alike come from different tables or passages of the source.

With `CNC(=O)[C@@H](Cc1ccc(OCCCS(=O)(=O)[O-])cc1)NC(=O)[C@H](CC(C)C)C(CN1C(=O)c2ccccc2C1=O)C(=O)NO.[Na+]` (single isomer, unassigned) [Example 3, 5-methyl-3(R)-{1(R)-methylcarbamoyl-2-[4-(3-sulfopropoxy)phenyl]ethylcarbamoyl}-2(R or S)-phthalimidomethylhexanohydroxamic acid sodium salt], the “inhibitory effect of compound on LPS in E. coli culture supernatant, relative ratio” value (shortened to “inhibitory effect of compound … relative ratio”) in experiment [1] (sodium salt) is on record as 0.70. As to `CC(C)C[C@@H](C(=O)N[C@@H](Cc1ccccc1)C(=O)NCS(=O)(=O)[O-])C(CN1C(=O)c2ccccc2C1=O)C(=O)NO.[Na+]` (single isomer, unassigned) [Example 15, 5-methyl-3(R)-[2-phenyl-1(S)-(sulfomethylcarbamoyl)ethylcarbamoyl]-2(R or S)-phthalimidomethylhexanohydroxamic acid sodium salt], the “inhibitory effect of compound … relative ratio” value in experiment [1] turned out to be 1.05. Further, the inhibition in vivo at 2.5 mg/kg/h in experiment [2] (setting [3]) was found to be 70.3%; in experiment [2] (setting [4]), 68.2%.

For `CC(C)C[C@@H](C(=O)N[C@@H](Cc1ccccc1)C(=O)NCCCCCS(=O)(=O)[O-])C(CN1C(=O)c2ccccc2C1=O)C(=O)NO.[Na+]` (single isomer, unassigned) [Example 22, 5-methyl-3(R)-[2-phenyl-1(S)-(5-sulfopentylcarbamoyl)ethylcarbamoyl]-2(R or S)-phthalimidomethylhexanohydroxamic acid sodium salt], in experiment [1], the “inhibitory effect of compound … relative ratio” value turned out to be 0.68. For the same compound, the results for the inhibition in vivo at 2.5 mg/kg/h in experiment [2] (setting [3]) and in experiment [2] (setting [4]) were 80.7% and 21.6%, respectively. For `CNC(=O)[C@H](Cc1ccc(OCCS(=O)(=O)[O-])cc1)NC(=O)[C@H](CC(C)C)C(CN1C(=O)c2ccccc2C1=O)C(=O)NO.[Na+]` (single isomer, unassigned) [Example 10, 5-methyl-3(R)-{1(S)-methylcarbamoyl-2-[4-(2-sulfoethoxy)phenyl]ethylcarbamoyl}-2(R or S)-phthalimidomethylhexanohydroxamic acid sodium salt] the same measures were 0.87, 88.1% and 81.4%. On the same counts, the results for `CNC(=O)[C@H](Cc1ccc(OCCCCS(=O)(=O)[O-])cc1)NC(=O)[C@H](CC(C)C)C(CN1C(=O)c2ccccc2C1=O)C(=O)NO.[Na+]` (single isomer, unassigned) [Example 11, 5-methyl-3(R)-{1(S)-methylcarbamoyl-2-[4-(4-sulfobutoxy)phenyl]ethylcarbamoyl}-2(R or S)-phthalimidomethylhexanohydroxamic acid sodium salt] are 0.74, 5.5% and 36.2%. As to `CNC(=O)[C@@H](Cc1ccc(OCCCS(=O)(=O)[O-])cc1)NC(=O)[C@H](CC(C)C)C(CN1C(=O)c2ccccc2C1=O)C(=O)NO.[Na+]` (single isomer, unassigned) [Example 5, 5-methyl-3(R)-{1(R)-methylcarbamoyl-2-[4-(3-sulfopropoxy)phenyl]ethylcarbamoyl}-2(R or S)-phthalimidomethylhexanohydroxamic acid sodium salt], the “inhibitory effect of compound … relative ratio” value in experiment [1] (sodium salt) is 0.80.

With `CC(C)C[C@@H](C(=O)N[C@@H](Cc1ccccc1)C(=O)NCS(=O)(=O)[O-])C(Cc1ccc2ccccc2c1)C(=O)NO.[Na+]` (single isomer, unassigned) [Example 25, 5-methyl-2(R or S)-(2-naphthylmethyl)-3(R)-[2-phenyl-1(S)-(sulfomethylcarbamoyl)ethylcarbamoyl]hexanohydroxamic acid sodium salt], the “inhibitory effect of compound … relative ratio” value in experiment [1] was 0.33. With `CNC(=O)[C@H](Cc1ccc(OCCCS(=O)(=O)[O-])cc1)NC(=O)[C@@H](CC(C)C)C(CN1C(=O)c2ccccc2C1=O)C(=O)NO.[Na+]` (single isomer, unassigned) [Example 9, 5-methyl-3(S)-{1(S)-methylcarbamoyl-2-[4-(3-sulfopropoxy)phenyl]ethylcarbamoyl}-2(R or S)-phthalimidomethylhexanohydroxamic acid sodium salt], the “inhibitory effect of compound … relative ratio” value in experiment [1] (sodium salt) stood at 0.51.

On to `CNC(=O)[C@@H](Cc1ccc(OCCCS(=O)(=O)[O-])cc1)NC(=O)[C@@H](CC(C)C)C(CN1C(=O)c2ccccc2C1=O)C(=O)NO.[Na+]` (single isomer, unassigned) [Example 6, 5-methyl-3(S)-{1(R)-methylcarbamoyl-2-[4-(3-sulfopropoxy)phenyl]ethylcarbamoyl}-2(R or S)-phthalimidomethylhexanohydroxamic acid sodium salt], for which the “inhibitory effect of compound … relative ratio” value in experiment [1] (sodium salt) was 0.69.

In the case of `CNC(=O)[C@H](Cc1ccc(OCCCS(=O)(=O)[O-])cc1)NC(=O)[C@@H](CC(C)C)C(CN1C(=O)c2ccccc2C1=O)C(=O)NO.[Na+]` (single isomer, unassigned) [Example 7, 5-methyl-3(S)-{1(S)-methylcarbamoyl-2-[4-(3-sulfopropoxy)phenyl]ethylcarbamoyl}-2(R or S)-phthalimidomethylhexanohydroxamic acid sodium salt], the “inhibitory effect of compound … relative ratio” value in experiment [1] (sodium salt) was found to be 0.79. Regarding `CC(C)C[C@@H](C(=O)N[C@@H](Cc1ccccc1)C(=O)NCCS(=O)(=O)[O-])C(Cc1ccc2ccccc2c1)C(=O)NO.[Na+]` (single isomer, unassigned) [Example 26, 5-methyl-2(R or S)-(2-naphthylmethyl)-3(R)-[2-phenyl-1(S)-(2-sulfoethylcarbamoyl)ethylcarbamoyl]hexanohydroxamic acid sodium salt], the “inhibitory effect of compound … relative ratio” value in experiment [1] was found to be 0.54. `CNC(=O)[C@H](Cc1ccc(OCCCCCS(=O)(=O)[O-])cc1)NC(=O)[C@H](CC(C)C)C(CN1C(=O)c2ccccc2C1=O)C(=O)NO.[Na+]` (single isomer, unassigned) [Example 12, 5-methyl-3(R)-{1(S)-methylcarbamoyl-2-[4-(5-sulfopentoxy)phenyl]ethylcarbamoyl}-2(R or S)-phthalimidomethylhexanohydroxamic acid sodium salt]: the “inhibitory effect of compound … relative ratio” value in experiment [1] is reported as 0.85. Consider `CNC(=O)[C@@H](Cc1ccc(OCCCS(=O)(=O)[O-])cc1)NC(=O)[C@@H](CC(C)C)C(CN1C(=O)c2ccccc2C1=O)C(=O)NO.[Na+]` (single isomer, unassigned) [Example 8, 5-methyl-3(S)-{1(R)-methylcarbamoyl-2-[4-(3-sulfopropoxy)phenyl]ethylcarbamoyl}-2(R or S)-phthalimidomethylhexanohydroxamic acid sodium salt], for which the “inhibitory effect of compound … relative ratio” value in experiment [1] (sodium salt) is recorded as 0.60.

Take `CNC(=O)[C@H](Cc1ccc(OCCCS(=O)(=O)[O-])cc1)NC(=O)[C@H](CC(C)C)C(CN1C(=O)c2ccccc2C1=O)C(=O)NO.[Na+]` (single isomer, unassigned) [Example 4, 5-methyl-3(R)-{1(S)-methylcarbamoyl-2-[4-(3-sulfopropoxy)phenyl]ethylcarbamoyl}-2(R or S)-phthalimidomethylhexanohydroxamic acid sodium salt]: the “inhibitory effect of compound … relative ratio” value in experiment [1] (sodium salt) is given as 0.69.

These data come from patent US6989401B2, “Sulfonic acid derivatives of hydroxamic acids and their use as medicinal products” (Mitsubishi Pharma Corporation, priority 2000, dated 2006).
